According to ChEMBL document CHEMBL3739323, “Design, synthesis, and biological evaluation of novel quinazolinyl-diaryl urea derivatives as potential anticancer agents” (Eur J Med Chem, 2016):

How the values were obtained:
[1] = Antiproliferative activity against human MGC803 cells by MTT assay; format: functional, cell-based; conditions: MGC-803
[2] = target: RAF proto-oncogene serine/threonine-protein kinase (Homo sapiens) (UniProt P04049); experiment: Inhibition of c-Raf in human A549 cells assessed as downregulation of ERK1/2 expression after 48 hrs by Western blot analysis; format: cell-based
Sequence of RAF proto-oncogene serine/threonine-protein kinase (Homo sapiens) (P04049 whole entry): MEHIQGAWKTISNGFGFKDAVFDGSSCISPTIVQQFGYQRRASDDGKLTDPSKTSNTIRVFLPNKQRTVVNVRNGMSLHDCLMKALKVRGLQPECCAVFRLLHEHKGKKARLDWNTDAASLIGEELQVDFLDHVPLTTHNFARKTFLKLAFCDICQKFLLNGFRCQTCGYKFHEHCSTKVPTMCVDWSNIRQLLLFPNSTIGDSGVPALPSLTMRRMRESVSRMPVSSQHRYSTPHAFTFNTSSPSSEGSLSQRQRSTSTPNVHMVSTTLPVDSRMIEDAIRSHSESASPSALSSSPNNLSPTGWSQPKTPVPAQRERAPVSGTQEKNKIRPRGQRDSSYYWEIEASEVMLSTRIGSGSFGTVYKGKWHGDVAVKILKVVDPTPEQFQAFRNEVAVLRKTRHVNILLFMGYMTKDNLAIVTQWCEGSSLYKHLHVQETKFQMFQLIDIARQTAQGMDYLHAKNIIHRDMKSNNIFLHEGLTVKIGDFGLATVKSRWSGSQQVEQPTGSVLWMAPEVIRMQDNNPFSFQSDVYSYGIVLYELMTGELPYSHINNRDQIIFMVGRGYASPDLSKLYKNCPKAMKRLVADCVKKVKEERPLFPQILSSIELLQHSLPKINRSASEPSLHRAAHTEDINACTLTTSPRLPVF

A549 [3] = experiment: Cell cycle arrest in human A549 cells assessed as accumulation at G0/G1 phase at 10 uM by propidium iodide staining based flow cytometric analysis (reference value: 63.82 +/- 2.66%); format: functional
A549 [4] = experiment: Cell cycle arrest in human A549 cells assessed as accumulation at G2/M phase at 5 uM by propidium iodide staining based flow cytometric analysis (reference value: 12.77 +/- 1.55%); format: functional
A549 [5] = experiment: Disruption of mitochondrial membrane potential in human A549 cells assessed as ratio of green to red fluorescence intensity at 20 uM after 24 hrs by JC-1 staining based flow cytometric analysis; format: functional
A549 [6] = experiment: Induction of apoptosis in human A549 cells assessed as early apoptotic cells at 5 uM after 48 hrs by Annexin-V/Propidium iodide dual staining based flow cytometric analysis (reference value: 3.53 +/- 0.89%); format: functional
A549 [7] = experiment: Induction of apoptosis in human A549 cells assessed as downregulation of Bcl-2 expression after 48 hrs by Western blot analysis; format: functional, cell-based
A549 [8] = experiment: Induction of apoptosis in human A549 cells assessed as viable cells at 10 uM after 6 hrs by Annexin-V-FITC/Propidium iodide staining based flow cytometric analysis (reference value: 95.48 +/- 2.03%); format: functional; conditions: A549, 6 h, read-out: Activity
A549 [9] = experiment: Induction of cell cycle arrest in human A549 cells assessed as downregulation of p-Rb(Ser780) expression after 48 hrs by Western blot analysis; format: functional, cell-based
A549 [10] = experiment: Induction of apoptosis in human A549 cells assessed as increase in ROS production at 20 uM after 6 hrs by DCF staining based luminescence spectrometric analysis relative to control; format: functional
A549 [11] = experiment: Cell cycle arrest in human A549 cells assessed as accumulation at G0/G1 phase at 20 uM by propidium iodide staining based flow cytometric analysis (reference value: 63.82 +/- 2.66%); format: functional
[12] = Cytotoxicity against human BEAS2B cells by MTT assay; format: cell-based; conditions: BEAS-2B
A549 [13] = experiment: Antiproliferative activity against human A549 cells by MTT assay; format: functional, cell-based
A549 [14] = experiment: Cell cycle arrest in human A549 cells assessed as accumulation at G0/G1 phase at 5 uM by propidium iodide staining based flow cytometric analysis (reference value: 63.82 +/- 2.66%); format: functional
A549 [15] = experiment: Induction of apoptosis in human A549 cells assessed as late apoptotic cells at 5 uM after 48 hrs by Annexin-V/Propidium iodide dual staining based flow cytometric analysis (reference value: 1.44 +/- 0.43%); format: functional
A549 [16] = experiment: Induction of apoptosis in human A549 cells assessed as early apoptotic cells at 20 uM after 48 hrs by Annexin-V/Propidium iodide dual staining based flow cytometric analysis (reference value: 3.53 +/- 0.89%); format: functional
HepG2 = experiment: Antiproliferative activity against human HepG2 cells by MTT assay; format: functional, cell-based
A549 [17] = experiment: Induction of apoptosis in human A549 cells assessed as necrotic cells at 5 uM after 48 hrs by Annexin-V/Propidium iodide dual staining based flow cytometric analysis (reference value: 2.57 +/- 0.39%); format: functional
[18] = target: RAF proto-oncogene serine/threonine-protein kinase (Homo sapiens) (UniProt P04049); experiment: Inhibition of c-Raf in human A549 cells assessed as downregulation of phosphorylated ERK1/2 expression after 48 hrs by Western blot analysis; format: cell-based
A549 [19] = experiment: Cell cycle arrest in human A549 cells assessed as accumulation at S phase at 10 uM by propidium iodide staining based flow cytometric analysis (reference value: 23.41 +/- 2.19%); format: functional
A549 [20] = experiment: Induction of apoptosis in human A549 cells assessed as increase in ROS production at 20 uM after 12 hrs by DCF staining based luminescence spectrometric analysis relative to control; format: functional
A549 [21] = experiment: Induction of apoptosis in human A549 cells assessed as viable cells at 20 uM after 48 hrs by Annexin-V/Propidium iodide dual staining based flow cytometric analysis (reference value: 92.46 +/- 4.23%); format: functional; conditions: A549, 48 h, read-out: Activity
A549 [22] = experiment: Induction of apoptosis in human A549 cells assessed as viable cells at 5 uM after 48 hrs by Annexin-V-FITC/Propidium iodide staining based flow cytometric analysis (reference value: 92.46 +/- 4.23%); format: functional; conditions: A549, 48 h, read-out: Activity
A549 [23] = experiment: Induction of apoptosis in human A549 cells assessed as late apoptotic cells at 10 uM after 48 hrs by Annexin-V/Propidium iodide dual staining based flow cytometric analysis (reference value: 1.44 +/- 0.43%); format: functional
A549 [24] = experiment: Induction of apoptosis in human A549 cells assessed as necrotic cells at 10 uM after 48 hrs by Annexin-V/Propidium iodide dual staining based flow cytometric analysis (reference value: 2.57 +/- 0.39%); format: functional
A549 [25] = experiment: Induction of cell cycle arrest in human A549 cells assessed as downregulation of p-Rb(Ser807/811) expression after 48 hrs by Western blot analysis; format: functional, cell-based
A549 [26] = experiment: Disruption of mitochondrial membrane potential in human A549 cells assessed as ratio of green to red fluorescence intensity at 20 uM after 12 hrs by JC-1 staining based flow cytometric analysis; format: functional
A549 [27] = experiment: Induction of apoptosis in human A549 cells assessed as upregulation of caspase-3 expression after 48 hrs by Western blot analysis; format: functional, cell-based
A549 [28] = experiment: Cell cycle arrest in human A549 cells assessed as accumulation at S phase at 20 uM by propidium iodide staining based flow cytometric analysis (reference value: 23.41 +/- 2.19%); format: functional
A549 [29] = experiment: Selectivity index, ratio of IC50 for human BEAS2B cells to IC50 for human A549 cells; format: functional
A549 [30] = experiment: Induction of apoptosis in human A549 cells assessed as late apoptotic cells at 5 uM after 6 hrs by Annexin-V-FITC/Propidium iodide staining based flow cytometric analysis (reference value: 0.41 +/- 0.19%); format: functional
A549 [31] = experiment: Induction of apoptosis in human A549 cells assessed as early apoptotic cells at 10 uM after 48 hrs by Annexin-V/Propidium iodide dual staining based flow cytometric analysis (reference value: 3.53 +/- 0.89%); format: functional
A549 [32] = experiment: Cell cycle arrest in human A549 cells assessed as accumulation at S phase at 5 uM by propidium iodide staining based flow cytometric analysis (reference value: 23.41 +/- 2.19%); format: functional
A549 [33] = experiment: Induction of apoptosis in human A549 cells assessed as upregulation of caspase-8 expression after 48 hrs by Western blot analysis; format: functional, cell-based
A549 [34] = experiment: Induction of apoptosis in human A549 cells assessed as necrotic cells at 5 uM after 6 hrs by Annexin-V-FITC/Propidium iodide staining based flow cytometric analysis (reference value: 0.28 +/- 0.09%); format: functional
A549 [35] = experiment: Induction of apoptosis in human A549 cells assessed as late apoptotic cells at 10 uM after 6 hrs by Annexin-V-FITC/Propidium iodide staining based flow cytometric analysis (reference value: 0.41 +/- 0.19%); format: functional

COc1cc2ncnc(NCc3cccc(NC(=O)Nc4ccc(C(C)(C)C)cc4)c3)c2cc1OC
IC50 [1]: 6.79 µM | inhibition [2]: Dose-dependent effect | Activity (A549 [3]): 85.44% | Activity (A549 [4]): 13.43% | Ratio (A549 [5]): 125 | Activity (A549 [6]): 2.54% | Activity (A549 [7]): Dose-dependent effect | viability at 10 µM (A549 [8]): 81.8% | Activity (A549 [9]): Dose-dependent effect | Activity (A549 [10]): 54.3% | Activity (A549 [11]): 95.33% | IC50 [12]: 26.5 µM | IC50 (A549 [13]): 5.21 µM | Activity (A549 [14]): 66.29% | Activity (A549 [15]): 7.84% | Activity (A549 [16]): 0.57% | IC50 (HepG2): 6.85 µM | Activity (A549 [17]): 14.2% | inhibition [18]: Dose-dependent effect | Activity (A549 [19]): 6.91% | Activity (A549 [20]): 80.9% | viability at 20 µM (A549 [21]): 51.6% | viability at 5 µM (A549 [22]): 75.4% | Activity (A549 [23]): 7.83% | Activity (A549 [24]): 22.9% | Activity (A549 [25]): Dose-dependent effect | Ratio (A549 [26]): 75 | Activity (A549 [27]): Dose-dependent effect | Activity (A549 [28]): 3.6% | Ratio IC50 (A549 [29]): >5 | Activity (A549 [30]): 5.97% | Activity (A549 [31]): 1.83% | Activity (A549 [32]): 20.28% | Activity (A549 [33]): Dose-dependent effect | Activity (A549 [34]): 0.44% | Activity (A549 [35]): 5.4%
